Our source for the IC50 values is patent publication US20230312528A1, “2-OXO-IMIDAZOLIDINE-4-CARBOXAMIDES AS NAV1.8 INHIBITORS” (Merck Sharp & Dohme LLC, priority 2020, published 2023).

As a reminder, the IC50 is the concentration needed to halve the response being measured. Low readings indicate greater potency, high ones weaker potency.

Molecules are shown by their SMILES.

The assay deals with human NaV1.8 (Homo sapiens (Human), UniProt Q9Y5Y9). Briefly: Nav1.8 Qube automated patch-clamp assay. The settings on record: human NaV1.8 stably expressed in HEK 293 cells; automated 384-well patch-clamp; resting or inactivated state not specified. It is filed as cell-based. The protocol: Compounds were tested on human NaV1.8 and NaV1.5 channels stably expressed in human embryo kidney (HEK) 293 cells. Sodium current measurements on Qube® were conducted as follows: automated 384-well patch-clamp assays on the Qube® platform (Sophion Biosciences) were used to measure the inhibition of sodium flow through human NaV1.8 and NaV1.5 channels. Whole-cell voltage-clamp recordings were performed in QChips® (Sophion Biosciences) at room temperature. NaV1.8 current measurements on Qube® were obtained as follows: NaV1.8 currents were elicited with a 10 second 1 Hertz (Hz) pulse train from a holding potential of −90 millivolts (mV), delivered to the cells once per minute in the control condition (DMSO only) and after compound addition. The 1 hertz pulse train stimulation consisted of ten test pulses to 10 millivolt (mV) for 20 milliseconds (ms), each of which was followed by a 980 millisecond repolarization to −67 millivolts. At the end of the 10 second pulse train stimulation, a 5 second hyperpolarization step to −100 millivolt (mV) was used to recover NaV1.8 from fast inactivation. The peak currents elicited by the 1st and 10th test pulses were used to determine IC50 values for resting inhibition and inactivated state inhibition. NaV1.5 current measurements on Qube® were obtained as follows: NaV1.5 currents were elicited with a 20 second 3 Hertz pulse train in the control condition (DMSO only) and after compound addition. The pulse train consisted of sixty 20 millisecond test pulses to 0 millivolt from a holding potential of −80 millivolt (mV). The average peak currents elicited by the last 3 test pulses were used to determine IC50 values for NaV1.5 inhibition.
Sequence of human NaV1.8 (Q9Y5Y9 whole entry): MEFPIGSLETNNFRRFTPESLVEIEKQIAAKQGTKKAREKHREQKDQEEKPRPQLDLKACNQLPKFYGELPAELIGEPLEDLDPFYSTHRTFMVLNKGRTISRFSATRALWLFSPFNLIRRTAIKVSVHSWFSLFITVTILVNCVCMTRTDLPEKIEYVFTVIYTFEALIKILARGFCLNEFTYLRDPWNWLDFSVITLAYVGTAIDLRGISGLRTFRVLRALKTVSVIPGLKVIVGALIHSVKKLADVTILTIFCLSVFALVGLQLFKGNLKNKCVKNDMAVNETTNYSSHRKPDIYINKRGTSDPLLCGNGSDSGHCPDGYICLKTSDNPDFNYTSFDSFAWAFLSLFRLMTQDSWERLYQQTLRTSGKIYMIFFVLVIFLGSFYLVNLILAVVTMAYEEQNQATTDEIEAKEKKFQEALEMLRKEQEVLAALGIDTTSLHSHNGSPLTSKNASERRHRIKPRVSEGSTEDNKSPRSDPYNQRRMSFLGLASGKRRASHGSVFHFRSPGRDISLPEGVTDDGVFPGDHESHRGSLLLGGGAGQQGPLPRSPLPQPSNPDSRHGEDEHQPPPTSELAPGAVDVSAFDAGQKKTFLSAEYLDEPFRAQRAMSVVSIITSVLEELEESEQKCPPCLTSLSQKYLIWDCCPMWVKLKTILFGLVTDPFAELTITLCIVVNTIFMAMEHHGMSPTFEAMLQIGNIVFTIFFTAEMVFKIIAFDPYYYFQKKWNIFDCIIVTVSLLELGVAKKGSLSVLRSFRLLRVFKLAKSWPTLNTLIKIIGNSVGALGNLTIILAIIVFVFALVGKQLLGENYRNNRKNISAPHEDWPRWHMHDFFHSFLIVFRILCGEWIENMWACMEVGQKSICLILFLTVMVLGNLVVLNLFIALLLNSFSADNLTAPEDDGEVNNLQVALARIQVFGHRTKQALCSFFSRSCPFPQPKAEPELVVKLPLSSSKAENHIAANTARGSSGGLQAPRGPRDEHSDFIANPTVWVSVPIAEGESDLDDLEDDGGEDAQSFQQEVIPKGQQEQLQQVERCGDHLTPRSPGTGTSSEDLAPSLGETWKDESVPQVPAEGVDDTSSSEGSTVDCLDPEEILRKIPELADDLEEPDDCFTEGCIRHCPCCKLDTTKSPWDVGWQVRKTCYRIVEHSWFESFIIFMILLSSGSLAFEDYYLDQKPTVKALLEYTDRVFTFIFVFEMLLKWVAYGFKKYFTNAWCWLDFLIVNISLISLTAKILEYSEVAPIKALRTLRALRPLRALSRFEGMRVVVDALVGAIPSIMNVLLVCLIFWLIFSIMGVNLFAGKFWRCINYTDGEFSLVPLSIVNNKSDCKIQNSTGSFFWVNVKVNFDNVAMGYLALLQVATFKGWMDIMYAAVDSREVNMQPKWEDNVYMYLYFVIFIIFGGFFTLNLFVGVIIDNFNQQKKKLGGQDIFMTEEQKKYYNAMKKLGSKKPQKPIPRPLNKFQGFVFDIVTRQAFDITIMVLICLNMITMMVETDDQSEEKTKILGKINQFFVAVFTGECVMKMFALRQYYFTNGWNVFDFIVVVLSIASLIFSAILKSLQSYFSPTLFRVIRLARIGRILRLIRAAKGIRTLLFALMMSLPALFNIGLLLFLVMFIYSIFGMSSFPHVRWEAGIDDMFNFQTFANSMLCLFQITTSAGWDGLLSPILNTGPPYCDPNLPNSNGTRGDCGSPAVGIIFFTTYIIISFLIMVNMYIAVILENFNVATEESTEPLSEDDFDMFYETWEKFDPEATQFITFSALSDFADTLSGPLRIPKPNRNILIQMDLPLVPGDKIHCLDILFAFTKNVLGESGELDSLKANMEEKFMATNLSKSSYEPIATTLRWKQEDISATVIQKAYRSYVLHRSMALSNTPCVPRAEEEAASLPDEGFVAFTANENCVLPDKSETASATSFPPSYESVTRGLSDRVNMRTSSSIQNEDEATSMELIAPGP
The following buffers were used for the Qube® recordings: External buffer for NaV1.8 Qube® recording: 150 NaCl, 2 CaCl2, 5 KCl, 1 Mg Cl2, 10 HEPES, 12 Dextrose; External buffer for Qube® NaV1.5 recording: 120 N-Methyl-D-Glucamine, 40 NaCl, 1 KCl, 2.7 CaCl2, 5 HEPES, 0.5 MgCl2; and Internal buffer for Qube® recording: 120 CsF, 30 CsCl, 10 EGTA, 5 HEPES, 5 NaF, 2 MgCl2.
For all Qube® experiments offline analysis was used to determine percent inhibition as a function of drug concentration. IC50 values were determined by fitting to the Hill equation.
`O=C1NC[C@@H](C(=O)NC(c2ccc(F)c(Cl)c2)C2Cc3c(Cl)cccc32)N1` (single isomer, unassigned) [Example 70A, (S)-N-((R or S)-(3-chloro-4-fluoro-phenyl)((R or S)-2-chlorobicyclo[4.2.0]-octa-1(6),2,4-trien-7-yl)methyl)-2-oxoimidazolidine-4-carboxamide] displayed an IC50 of 26 nM.

`O=C1NC[C@@H](C(=O)NC(c2ccc(F)c(Cl)c2)c2ccc(F)c(OCC(F)(F)F)n2)N1` (single isomer, unassigned) [Example 11A, (4S)-N-{((R or S)-3-chloro-4-fluorophenyl)[5-fluoro-6-(2,2,2-trifluoro-ethoxy)pyridin-2-yl]methyl}-2-oxoimidazolidine-4-carboxamide] showed an IC50 of 50 nM.

In turn, `O=C1NC[C@@H](C(=O)NC(c2ccc(Cl)cc2)c2cccc(OC(F)F)n2)N1` (single isomer, unassigned) [Example 74A, (S)-N-((R or S)-(4-chlorophenyl)(6-(difluoromethoxy)pyridin-2-yl)methyl)-2-oxoimidazolidine-4-carboxamide] yielded an IC50 of 19 nM.

Turning to `Cc1nc(C(F)(F)F)sc1C(NC(=O)[C@@H]1CNC(=O)N1)c1ccc(Cl)cc1` (stereo partly drawn) [Example 76, (4S)-N-((4-chlorophenyl)(4-methyl-2-(trifluoro-methyl)thiazol-5-yl)methyl)-2-oxoimidazolidine-4-carboxamide], the IC50 was 35 nM.

As for `O=C1NC[C@@H](C(=O)NC(c2ccc(OC(F)(F)F)cc2)c2ccc(Cl)c(C3CC3)n2)N1` (single isomer, unassigned) [Example 40B, (S)-N-((R or S)-(5-chloro-6-cyclopropylpyridin-2-yl)(4-(trifluoromethoxy)phenyl)methyl)-2-oxoimidazolidine-4-carboxamide], the 50% inhibitory concentration (IC50) amounted to 3.5 nM.

In turn, `CC1(C(=O)NC(c2ccc(Cl)cc2)c2ccc(Cl)cc2)NC(=O)NC1=O` (single isomer, unassigned) [Example 20A, (R or S)—N-(bis(4-chlorophenyl)methyl)-4-methyl-2,5-dioxoimidazolidine-4-carboxamide] had a 50% inhibitory concentration (IC50) of 19200 nM.

As for `O=C1NC[C@@H](C(=O)NC(COc2ccc(F)c(Cl)c2)c2ccc(F)c(Cl)c2)N1` (single isomer, unassigned) [Example 1A, (S)—N—((R or S)-2-(3-chloro-4-fluorophenoxy)-1-(3-chloro-4-fluorophenyl)ethyl)-2-oxoimidazolidine-4-carboxamide], the IC50 was 4 nM.

As for `O=C1NC[C@@H](C(=O)NC(c2ccc(F)c(Cl)c2F)C2COC(C(F)(F)F)C2)N1` (single isomer, unassigned) [Example 79G, (S)-N-((R or S)-(3-chloro-2,4-difluoro-phenyl)((cis or trans)-5-(trifluoromethyl)tetrahydrofuran-3-yl)methyl)-2-oxoimidazolidine-4-carboxamide], the midpoint of inhibition, the IC50, lay at 2330 nM.

Molecule `O=C1NC[C@@H](C(=O)NC(c2cnc(C3CC3)c(Cl)c2)c2ccc(F)c(Cl)c2F)N1` (single isomer, unassigned) [Example 13B, (4S)-N-[((R or S)-5-chloro-6-cyclo-propylpyridin-3-yl)(3-chloro-2,4-difluoro-phenyl)methyl]-2-oxoimidazolidine-4-carboxamide] showed an IC50 of 38 nM.

In turn, `O=C1NC[C@@H](C(=O)NC(c2ccc(F)c(Cl)c2)c2cc(C(F)(F)F)[nH]n2)N1` (single isomer, unassigned) [Example 4B, (S)—N—((R or S)-(3-chloro-4-fluorophenyl)(5-(trifluoromethyl)-1H-pyrazol-3-yl)methyl)-2-oxoimidazolidine-4-carboxamide] yielded a concentration for half-maximal inhibition (IC50) of 6.2 nM.

On to `O=C1NC[C@@H](C(=O)NC(c2ccc(F)c(Cl)c2F)C2CC3(C2)CC(F)(F)C3)N1` (single isomer, unassigned) [Example 37, (S)-N-((R or S)-(3-chloro-2,4-difluorophenyl)(6,6-difluorospiro[3.3]heptan-2-yl)methyl)-2-oxoimidazolidine-4-carboxamide], for which the IC50 worked out at 11 nM.

`CN1CCC(C(NC(=O)[C@@H]2CNC(=O)N2)c2ccc(F)c(Cl)c2F)CC1C(F)(F)F` (single isomer, unassigned) [Example 78D, (S)-N-((R or S)-(3-chloro-2,4-difluoro-phenyl)((cis or trans)-1-methyl-2-(trifluoro-methyl)piperidin-4-yl)methyl)-2-oxoimidazolidine-4-carboxamide] returned a half-maximal inhibitory concentration (IC50) of 4660 nM.

For `O=C1NC[C@@H](C(=O)NC(CC2CCC(C(F)(F)F)CC2)c2ccc(F)c(Cl)c2F)N1` (single isomer, unassigned) [Example 23C, (S)—N—((R or S)-1-(3-chloro-2,4-difluorophenyl)-2-((cis or trans)-4-(trifluoromethyl)cyclohexyl)ethyl)-2-oxoimidazolidine-4-carboxamide], the IC50 came out at 62 nM.

On to `O=C1NC[C@@H](C(=O)NC(c2ccc(OC(F)(F)F)nc2)c2ccc(F)c(C(F)(F)F)n2)N1` (single isomer, unassigned) [Example 45A, (S)-N-((R or S)-(5-fluoro-6-(trifluoro-methyl)pyridin-2-yl)(6-(trifluoromethoxy)pyridin-3-yl)methyl)-2-oxoimidazolidine-4-carboxamide], for which the IC50 came to 10 nM.

`CC1(C)CC(C(NC(=O)[C@@H]2CNC(=O)N2)c2ccc(F)c(Cl)c2)C1C(F)(F)F` (stereo partly drawn) [Example 68, (4S)-N-((3-chloro-4-fluorophenyl)(3,3-dimethyl-2-(trifluoromethyl)cyclobutyl)methyl)-2-oxoimidazolidine-4-carboxamide] displayed a half-inhibitory concentration (IC50) of 604 nM.

In the case of `CN1CCC(C(NC(=O)[C@@H]2CNC(=O)N2)c2ccc(F)c(Cl)c2F)CC1C(F)(F)F` (single isomer, unassigned) [Example 78B, (S)-N-((R or S)-(3-chloro-2,4-difluoro-phenyl)((cis or trans)-1-methyl-2-(trifluoro-methyl)piperidin-4-yl)methyl)-2-oxoimidazolidine-4-carboxamide], inhibition was half-maximal at 9500 nM (IC50).

In the case of `Cn1nc(C(NC(=O)[C@@H]2CNC(=O)N2)c2ccc(Cl)cc2)cc1C(F)(F)F` (single isomer, unassigned) [Example 75B], the IC50 was 115 nM.

Consider `O=C1NC[C@@H](C(=O)NC(c2ccc(F)c(Cl)c2F)C2CCCCN2CC(F)(F)F)N1` (single isomer, unassigned) [Example 58C, (S)-N-((R or S)-(3-chloro-2,4-difluorophenyl) ((R or S)-1-(2,2,2-trifluoroethyl)piperidin-2-yl)methyl)-2-oxoimidazolidine-4-carboxamide], for which the IC50 is 130 nM.

`N#Cc1cc(C(NC(=O)[C@@H]2CNC(=O)N2)c2ccc(OC(F)(F)F)cc2)ccc1Cl` (single isomer, unassigned) [Example 57A, (S)-N-((R or S)-(4-chloro-3-cyanophenyl)(4-(trifluoromethoxy)phenyl)methyl)-2-oxoimidazolidine-4-carboxamide]: 3.5 nM corresponded to half-maximal inhibition (IC50).

`O=C1NC[C@@H](C(=O)NC(c2cnc(OCC(F)(F)F)cn2)c2ccc(F)c(Cl)c2F)N1` (single isomer, unassigned) [Example 51A, N—((R or S)-(3-chloro-2,4-difluorophenyl)(5-(2,2,2-trifluoroethoxy)pyrazin-2-yl)methyl)-2-oxoimidazolidine-4-carboxamide] registered a 50% inhibitory concentration (IC50) of 9.2 nM.
